# In ChEMBL document CHEMBL1126455, “Syntheses of new metabolically stabilized TXA2/PGH2-receptor antagonists and their biological properties” (1992):
# Target: T1, Thromboxane A2 receptor (Homo sapiens) (UniProt P21731)
# T1 sequence (whole entry): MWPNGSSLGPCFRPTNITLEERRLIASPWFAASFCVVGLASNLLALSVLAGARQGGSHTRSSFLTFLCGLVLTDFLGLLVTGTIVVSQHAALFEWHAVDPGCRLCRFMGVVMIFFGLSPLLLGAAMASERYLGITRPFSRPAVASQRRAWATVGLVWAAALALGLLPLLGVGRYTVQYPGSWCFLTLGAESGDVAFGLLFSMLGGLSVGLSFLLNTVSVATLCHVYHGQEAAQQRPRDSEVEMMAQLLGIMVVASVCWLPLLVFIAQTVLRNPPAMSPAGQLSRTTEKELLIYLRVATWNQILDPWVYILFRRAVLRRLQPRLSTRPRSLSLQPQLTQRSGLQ
# Assay: Competition factor for Thromboxane A2 receptor/Prostaglandin H2 receptor was determined by CF=(ID50-test)/(ID50-standard)
row,SMILES,CF
1,Cc1ccc(S(=O)(=O)N[C@@H]2C3CC(c4ccc(F)cc4)(CO3)[C@H]2C/C=C\COCC(=O)O)cc1 (some centres not stated),170
2,O=C(O)CCC/C=C\C[C@H]1[C@H](CNS(=O)(=O)c2ccc(Cl)c(Cl)c2)C2CC1(c1ccc(F)cc1)CO2 (some centres not stated),0.5
3,O=C(O)COCCCC[C@H]1[C@H](CNS(=O)(=O)c2ccc(Cl)cc2)C2CC1(c1ccc(F)cc1)CO2 (some centres not stated),0.1
4,O=C(O)CCC/C=C\C[C@H]1[C@H](NS(=O)(=O)c2ccc(F)cc2)C2CC1(c1ccc(F)cc1)CO2 (some centres not stated),120
5,O=C(O)CCC/C=C\C[C@H]1[C@H](CNS(=O)(=O)c2ccc(Cl)cc2)C2CC1(c1ccc(F)cc1)CO2 (some centres not stated),0.2
6,O=C(O)COCCCC[C@H]1[C@H](CNS(=O)(=O)c2ccc(Cl)c(Cl)c2)C2CC1(c1ccc(-c3ccccc3)cc1)CO2 (some centres not stated),3
7,O=C(O)COCC=CC[C@H]1[C@H](NS(=O)(=O)c2ccc(F)cc2)C2CC1(c1ccc(F)cc1)CO2 (some centres not stated),400
8,Cc1ccc(S(=O)(=O)NC[C@@H]2C3CC(c4ccc(F)cc4)(CO3)[C@H]2CCCCOCC(=O)O)cc1 (some centres not stated),0.4
9,O=C(O)COCCCC[C@H]1[C@H](CNS(=O)(=O)c2ccc(Cl)c(Cl)c2)C2CC1(c1ccc(F)cc1)CO2 (some centres not stated),0.4
10,O=C(O)COCCCC[C@H]1[C@H](CNS(=O)(=O)c2ccc(F)cc2)C2CC1(c1ccc(F)cc1)CO2 (some centres not stated),0.5
11,O=C(O)CCC/C=C\C[C@H]1[C@H](CNS(=O)(=O)c2ccc(Cl)c(Cl)c2)C2CC1(c1ccc(-c3ccccc3)cc1)CO2 (some centres not stated),4.2
12,Cc1ccc(S(=O)(=O)NC[C@@H]2C3CC(c4ccc(F)cc4)(CO3)[C@H]2C/C=C\CCCC(=O)O)cc1 (some centres not stated),0.4
13,O=C(O)CCC/C=C\C[C@H]1[C@H](CNS(=O)(=O)c2ccc(F)cc2)C2CC1(c1ccc(F)cc1)CO2 (some centres not stated),0.3
14,Cc1ccc(S(=O)(=O)N[C@@H]2C3CC(c4ccc(F)cc4)(CO3)[C@H]2CCCCOCC(=O)O)cc1 (some centres not stated),27
15,Cc1ccc(S(=O)(=O)N[C@@H]2C3CC(c4ccc(F)cc4)(CO3)[C@H]2C/C=C\CCCC(=O)O)cc1 (some centres not stated),45
16,O=C(O)CCCCCC[C@H]1[C@H](CNS(=O)(=O)c2ccc(Cl)c(Cl)c2)C2CC1(c1ccc(-c3ccccc3)cc1)CO2 (some centres not stated),12

# Species on record: Homo sapiens
# Assay: Potency of was determined relative to the SQ 29548 by inhibition of aggregation of human platelet rich plasma induced by 10*-6 M U 46619
# Type: functional
row,SMILES,Potency
1,Cc1ccc(S(=O)(=O)N[C@@H]2C3CC(c4ccc(F)cc4)(CO3)[C@H]2C/C=C\COCC(=O)O)cc1 (some centres not stated),0.003
2,O=C(O)CCC/C=C\C[C@H]1[C@H](CNS(=O)(=O)c2ccc(Cl)c(Cl)c2)C2CC1(c1ccc(F)cc1)CO2 (some centres not stated),0.01
3,O=C(O)COCCCC[C@H]1[C@H](CNS(=O)(=O)c2ccc(Cl)cc2)C2CC1(c1ccc(F)cc1)CO2 (some centres not stated),0.08
4,O=C(O)CCC/C=C\C[C@H]1[C@H](NS(=O)(=O)c2ccc(F)cc2)C2CC1(c1ccc(F)cc1)CO2 (some centres not stated),0.0004
5,O=C(O)CCC/C=C\C[C@H]1[C@H](CNS(=O)(=O)c2ccc(Cl)cc2)C2CC1(c1ccc(F)cc1)CO2 (some centres not stated),0.01
6,O=C(O)COCCCC[C@H]1[C@H](CNS(=O)(=O)c2ccc(Cl)c(Cl)c2)C2CC1(c1ccc(-c3ccccc3)cc1)CO2 (some centres not stated),0.03
7,O=C(O)COCC=CC[C@H]1[C@H](NS(=O)(=O)c2ccc(F)cc2)C2CC1(c1ccc(F)cc1)CO2 (some centres not stated),0.003
8,Cc1ccc(S(=O)(=O)NC[C@@H]2C3CC(c4ccc(F)cc4)(CO3)[C@H]2CCCCOCC(=O)O)cc1 (some centres not stated),0.03
9,O=C(O)COCCCC[C@H]1[C@H](CNS(=O)(=O)c2ccc(Cl)c(Cl)c2)C2CC1(c1ccc(F)cc1)CO2 (some centres not stated),0.08
10,O=C(O)COCCCC[C@H]1[C@H](CNS(=O)(=O)c2ccc(F)cc2)C2CC1(c1ccc(F)cc1)CO2 (some centres not stated),0.08
11,O=C(O)CCC/C=C\C[C@H]1[C@H](CNS(=O)(=O)c2ccc(Cl)c(Cl)c2)C2CC1(c1ccc(-c3ccccc3)cc1)CO2 (some centres not stated),0.01
12,Cc1ccc(S(=O)(=O)NC[C@@H]2C3CC(c4ccc(F)cc4)(CO3)[C@H]2C/C=C\CCCC(=O)O)cc1 (some centres not stated),0.01
13,O=C(O)CCC/C=C\C[C@H]1[C@H](CNS(=O)(=O)c2ccc(F)cc2)C2CC1(c1ccc(F)cc1)CO2 (some centres not stated),0.03
14,Cc1ccc(S(=O)(=O)N[C@@H]2C3CC(c4ccc(F)cc4)(CO3)[C@H]2CCCCOCC(=O)O)cc1 (some centres not stated),0.003
15,Cc1ccc(S(=O)(=O)N[C@@H]2C3CC(c4ccc(F)cc4)(CO3)[C@H]2C/C=C\CCCC(=O)O)cc1 (some centres not stated),0.001
16,O=C(O)CCCCCC[C@H]1[C@H](CNS(=O)(=O)c2ccc(Cl)c(Cl)c2)C2CC1(c1ccc(-c3ccccc3)cc1)CO2 (some centres not stated),0.01
